In patent US11708346B2, “Treatment and prevention of neuropathic pain with P2Y14 antagonists” (Saint Louis University, priority 2019, dated 2023):
Where “and” joins values, the source holds several entries; their conditions need not be identical. Equal entries are not always repeated. Entries after “also recorded” stand apart in the source; their conditions may differ.

Tests used:
CB1 cannabinoid receptor = target: T1, CB1 cannabinoid receptor (Homo sapiens, UniProt P21554); assay: PRESTO-Tango agonist/antagonist assay; type: cell-based
T1 construct: expressed in transfected cells
T1 sequence (P21554 whole entry): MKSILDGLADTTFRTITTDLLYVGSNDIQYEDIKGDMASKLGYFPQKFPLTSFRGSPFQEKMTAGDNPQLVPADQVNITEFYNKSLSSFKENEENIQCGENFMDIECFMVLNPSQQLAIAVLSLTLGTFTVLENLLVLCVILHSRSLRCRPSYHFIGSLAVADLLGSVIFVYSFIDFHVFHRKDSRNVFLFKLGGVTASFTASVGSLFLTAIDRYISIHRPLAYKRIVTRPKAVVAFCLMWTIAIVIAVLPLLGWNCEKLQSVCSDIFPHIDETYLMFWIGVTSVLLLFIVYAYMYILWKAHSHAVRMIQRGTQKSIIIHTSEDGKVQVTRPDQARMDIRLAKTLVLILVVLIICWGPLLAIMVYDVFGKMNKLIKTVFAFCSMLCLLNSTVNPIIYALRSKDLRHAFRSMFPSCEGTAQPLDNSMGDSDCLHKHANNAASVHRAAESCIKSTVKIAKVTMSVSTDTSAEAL
Procedure: (§1) Synthesis of 7 was performed using a Sonogashira reaction (11 to 12), click reaction (13 to 14) and a Suzuki reaction (15 to 16) followed by two-step deprotection. […].

CB2 cannabinoid receptor = target: T2, CB2 cannabinoid receptor (Homo sapiens, UniProt P34972); assay: PRESTO-Tango agonist/antagonist assay; type: cell-based
T2 construct: expressed in transfected cells
T2 sequence (P34972 whole entry): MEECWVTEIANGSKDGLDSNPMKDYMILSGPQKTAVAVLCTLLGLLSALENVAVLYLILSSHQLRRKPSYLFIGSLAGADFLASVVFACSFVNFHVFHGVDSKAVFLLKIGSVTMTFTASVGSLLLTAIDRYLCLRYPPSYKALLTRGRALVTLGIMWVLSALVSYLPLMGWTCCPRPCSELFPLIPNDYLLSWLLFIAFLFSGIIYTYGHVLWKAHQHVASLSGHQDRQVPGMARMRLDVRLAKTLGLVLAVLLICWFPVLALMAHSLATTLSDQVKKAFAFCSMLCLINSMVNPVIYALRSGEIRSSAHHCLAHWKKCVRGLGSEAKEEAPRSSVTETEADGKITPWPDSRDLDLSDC
Procedure: as §1

[1] = system: CCI-induced mechano-allodynia; assay: Chronic constriction injury (CCI) of the sciatic nerve, mechano-allodynia by von Frey filaments; type: in vivo, mouse; details: for Effect at 0.5 h (% ± SD), percent inhibition of mechano-allodynia / Effect at 1 h (% + SD), percent inhibition of mechano-allodynia / Effect at 2 h (% ± SD), percent inhibition of mechano-allodynia / Effect at 3 h (% ± SD), percent inhibition of mechano-allodynia / Effect at 5 h (% ± SD), percent inhibition of mechano-allodynia: n = 3; for Reversal of CCI-induced mechano-allodynia: ipsilateral hind paw
Procedure: Chronic constriction injury (CCI) to the sciatic nerve was performed using the Bennett model. […] Then the animals were placed on a sterile surgical field and the skin was wiped with topical antiseptic, Dermachlor solution (0.2% chlorhexidine gluconate). […] A small incision was created on the lateral side of the left hind limb parallel to the femur. The sciatic nerve was exposed and ligated on two sites about 1 mm apart above the trifurcation using silk sutures 6.0. The incision was closed with clips and lidocaine cream was applied.
Mice were acclimated to the testing mesh-rack for 30 min before behavioral measurements. All behavioral testing was performed in the morning. The baseline measurements were determined on day 0 before CCI procedure. On day 7 post-CCI, baseline behavior responses were assessed, beginning prior to drug administration. Following drug injection, the behaviors were evaluated at multiple time points. Mechano-allodynia was quantified according to the hind paw withdrawal response to von Frey filaments stimulation by the Dixon up-and-down method. […] In presence of a positive withdrawal response a lighter filament was applied. If a negative response occurred, a stronger filament was used. At least four readings are obtained after the first positive response and the pattern of response was converted to a 50% paw withdrawal threshold (PWT), using the method described by Chaplan et al., J. Neurosci.
Data are expressed as mean±SD and analyzed by two-tailed, two-way repeated measures ANOVA with Dunnett's post hoc comparisons to day 7 behavior. The percentage of reversal of peak CCI-induced pain afforded by each drug was calculated for each animal using their baseline and day 7 post CCI behavioral measures. % Reversal=(PWT(g)t−PWT(g)day7)/PWT(g)day0−PWT(g)day7)×100, where PWT(g)=paw withdrawal threshold, t=time after drug. […] All statistical analyses were performed using GraphPad Prism 8 (Graph Pad Inc., San Diego, Calif.). Significance was accepted at p<0.05.

5HT1D = 5HT1D (Homo sapiens, UniProt P28221); assay: PDSP off-target binding; details: ± SEM
5HT1D, sequence (P28221 whole entry, species assumed): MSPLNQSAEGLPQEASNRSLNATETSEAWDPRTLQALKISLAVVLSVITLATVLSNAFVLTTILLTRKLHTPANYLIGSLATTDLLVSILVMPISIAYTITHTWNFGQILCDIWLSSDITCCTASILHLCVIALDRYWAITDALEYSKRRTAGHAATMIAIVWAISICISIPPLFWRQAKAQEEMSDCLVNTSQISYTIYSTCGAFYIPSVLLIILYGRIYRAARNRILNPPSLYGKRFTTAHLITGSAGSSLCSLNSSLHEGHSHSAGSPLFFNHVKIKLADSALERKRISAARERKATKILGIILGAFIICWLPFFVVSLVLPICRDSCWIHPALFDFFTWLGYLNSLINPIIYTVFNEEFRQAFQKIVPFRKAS

5HT1E = 5HT1E (Homo sapiens, UniProt P28566); assay: PDSP off-target binding; details: ± SEM
5HT1E, sequence (P28566 whole entry, species assumed): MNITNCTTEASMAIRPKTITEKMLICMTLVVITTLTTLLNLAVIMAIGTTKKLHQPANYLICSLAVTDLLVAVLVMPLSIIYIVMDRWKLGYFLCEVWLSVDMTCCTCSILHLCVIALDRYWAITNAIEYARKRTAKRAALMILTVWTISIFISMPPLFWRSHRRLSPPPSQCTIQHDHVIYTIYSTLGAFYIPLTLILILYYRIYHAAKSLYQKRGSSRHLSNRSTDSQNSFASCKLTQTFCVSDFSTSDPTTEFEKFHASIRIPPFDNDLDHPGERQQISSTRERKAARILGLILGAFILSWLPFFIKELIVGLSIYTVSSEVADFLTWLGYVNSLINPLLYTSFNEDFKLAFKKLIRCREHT

β3 = β3 (Homo sapiens, UniProt P13945); assay: PDSP off-target binding; details: ± SEM
β3, sequence (P13945 whole entry): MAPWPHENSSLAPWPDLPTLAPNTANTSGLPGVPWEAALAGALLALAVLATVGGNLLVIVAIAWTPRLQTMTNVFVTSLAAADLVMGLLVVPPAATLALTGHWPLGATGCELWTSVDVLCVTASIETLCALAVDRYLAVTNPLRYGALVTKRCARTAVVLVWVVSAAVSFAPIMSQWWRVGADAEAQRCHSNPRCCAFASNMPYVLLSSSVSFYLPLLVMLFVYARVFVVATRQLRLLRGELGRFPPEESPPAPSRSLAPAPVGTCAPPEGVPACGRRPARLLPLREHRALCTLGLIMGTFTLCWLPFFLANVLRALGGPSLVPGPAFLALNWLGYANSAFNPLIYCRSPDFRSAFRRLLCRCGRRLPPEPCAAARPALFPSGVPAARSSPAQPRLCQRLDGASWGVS

TSPO = TSPO (Rattus norvegicus, UniProt P16257); assay: PDSP off-target binding; details: ± SEM
TSPO, sequence (P16257 whole entry): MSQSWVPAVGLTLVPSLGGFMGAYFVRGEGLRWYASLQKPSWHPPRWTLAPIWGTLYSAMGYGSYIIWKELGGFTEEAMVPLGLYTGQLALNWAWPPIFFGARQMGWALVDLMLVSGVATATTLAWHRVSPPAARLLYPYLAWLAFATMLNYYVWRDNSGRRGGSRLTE

hP2Y14R = target: T3, hP2Y14R (Homo sapiens, UniProt Q15391); assay: Competitive fluorescent binding assay in whole CHO-hP2Y14R cells, tracer 20, flow cytometry; details: read-out: Human P2Y14R binding affinity (IC50)
T3 construct: expressed in transfected cells; host or cells: CHO
T3 sequence (Q15391 1-338): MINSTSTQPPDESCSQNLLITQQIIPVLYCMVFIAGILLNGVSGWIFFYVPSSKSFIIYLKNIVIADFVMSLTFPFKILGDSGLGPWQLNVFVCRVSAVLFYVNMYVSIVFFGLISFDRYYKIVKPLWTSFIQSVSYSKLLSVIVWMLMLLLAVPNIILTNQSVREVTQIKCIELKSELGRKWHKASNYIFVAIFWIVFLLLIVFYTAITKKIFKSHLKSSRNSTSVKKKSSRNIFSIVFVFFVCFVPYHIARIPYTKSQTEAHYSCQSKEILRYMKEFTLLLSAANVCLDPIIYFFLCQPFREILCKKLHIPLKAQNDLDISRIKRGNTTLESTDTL

mP2Y14R = target: T4, mP2Y14R (Mus musculus, UniProt Q9ESG6); details: for IC50: read-out: Mouse P2Y14R binding affinity (IC50), mP2Y14R in HEK293 cells, tracer 20
T4 sequence (Q9ESG6 1-338): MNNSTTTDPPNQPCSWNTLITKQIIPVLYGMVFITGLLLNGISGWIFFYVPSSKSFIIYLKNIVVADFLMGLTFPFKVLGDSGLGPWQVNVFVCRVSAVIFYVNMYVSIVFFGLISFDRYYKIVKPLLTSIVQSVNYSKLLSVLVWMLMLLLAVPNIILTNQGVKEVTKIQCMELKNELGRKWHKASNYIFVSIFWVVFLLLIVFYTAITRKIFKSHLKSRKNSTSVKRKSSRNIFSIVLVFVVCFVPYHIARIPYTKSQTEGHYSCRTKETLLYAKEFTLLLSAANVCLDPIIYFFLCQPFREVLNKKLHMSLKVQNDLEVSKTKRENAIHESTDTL

DOR = DOR (Homo sapiens, UniProt P41143); assay: PDSP off-target binding
DOR, sequence (P41143 whole entry): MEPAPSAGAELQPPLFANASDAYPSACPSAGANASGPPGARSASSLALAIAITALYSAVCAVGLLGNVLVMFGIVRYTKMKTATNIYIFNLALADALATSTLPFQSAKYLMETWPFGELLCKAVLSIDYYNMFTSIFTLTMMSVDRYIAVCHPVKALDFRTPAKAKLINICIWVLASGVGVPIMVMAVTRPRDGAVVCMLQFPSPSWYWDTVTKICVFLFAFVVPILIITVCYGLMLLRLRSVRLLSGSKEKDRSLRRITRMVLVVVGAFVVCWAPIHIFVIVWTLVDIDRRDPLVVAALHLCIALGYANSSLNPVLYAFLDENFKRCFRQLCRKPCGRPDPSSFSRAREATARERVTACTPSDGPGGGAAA

α2C = target: T5, α2C (Homo sapiens, UniProt P18825); assay: PDSP off-target binding; details: ± SEM
T5 sequence (P18825 1-462): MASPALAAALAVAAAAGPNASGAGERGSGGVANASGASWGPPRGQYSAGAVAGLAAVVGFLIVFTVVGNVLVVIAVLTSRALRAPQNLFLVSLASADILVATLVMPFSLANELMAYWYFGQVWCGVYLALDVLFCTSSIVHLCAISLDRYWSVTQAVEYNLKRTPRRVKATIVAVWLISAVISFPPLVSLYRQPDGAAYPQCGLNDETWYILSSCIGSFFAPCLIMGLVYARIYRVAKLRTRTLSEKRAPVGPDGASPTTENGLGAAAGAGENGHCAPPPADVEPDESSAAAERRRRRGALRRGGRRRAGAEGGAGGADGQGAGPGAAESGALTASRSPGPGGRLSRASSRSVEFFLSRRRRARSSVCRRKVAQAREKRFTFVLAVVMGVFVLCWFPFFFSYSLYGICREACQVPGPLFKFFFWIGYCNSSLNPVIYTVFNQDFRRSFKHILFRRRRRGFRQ

α2A = target: T6, α2A (Homo sapiens, UniProt P08913); assay: PDSP off-target binding
T6 sequence (P08913 1-465): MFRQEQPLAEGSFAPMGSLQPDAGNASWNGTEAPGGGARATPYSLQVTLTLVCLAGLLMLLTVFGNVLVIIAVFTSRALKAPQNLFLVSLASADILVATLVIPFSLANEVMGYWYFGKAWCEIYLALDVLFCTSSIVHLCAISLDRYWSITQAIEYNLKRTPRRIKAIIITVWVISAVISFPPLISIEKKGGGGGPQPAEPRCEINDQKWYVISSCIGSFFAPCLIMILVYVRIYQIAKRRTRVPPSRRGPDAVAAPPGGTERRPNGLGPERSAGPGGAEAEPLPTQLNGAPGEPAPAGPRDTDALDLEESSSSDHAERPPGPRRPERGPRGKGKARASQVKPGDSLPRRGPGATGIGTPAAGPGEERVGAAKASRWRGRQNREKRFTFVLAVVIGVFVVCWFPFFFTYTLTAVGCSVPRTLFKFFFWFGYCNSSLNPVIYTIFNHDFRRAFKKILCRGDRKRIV

α2B = target: T7, α2B (Homo sapiens, UniProt P18089); assay: PDSP off-target binding
T7 sequence (P18089 1-450): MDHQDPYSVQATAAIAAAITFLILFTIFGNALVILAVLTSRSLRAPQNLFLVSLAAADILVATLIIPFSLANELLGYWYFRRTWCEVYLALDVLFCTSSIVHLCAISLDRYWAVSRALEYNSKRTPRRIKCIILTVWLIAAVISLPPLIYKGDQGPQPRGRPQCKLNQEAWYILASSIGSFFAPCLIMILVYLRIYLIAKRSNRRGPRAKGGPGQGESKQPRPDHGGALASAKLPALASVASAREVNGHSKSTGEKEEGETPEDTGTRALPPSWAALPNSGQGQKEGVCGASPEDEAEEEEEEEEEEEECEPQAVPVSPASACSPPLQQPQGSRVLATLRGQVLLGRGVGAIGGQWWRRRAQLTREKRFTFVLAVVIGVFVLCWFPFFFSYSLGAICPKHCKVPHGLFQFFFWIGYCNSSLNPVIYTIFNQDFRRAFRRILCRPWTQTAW

[2] = 1 μmol/kg, i.p., day 7 post-CCI
[3] = 3 μmol/kg, i.p., day 7 post-CCI
[4] = 10 μmol/kg, i.p., day 7 post-CCI

| Structure (SMILES) | Effect at 0.5 h (% ± SD), percent inhibition of mechano-allodynia [1, 4] [%] | Effect at 1 h (% + SD), percent inhibition of mechano-allodynia [1, 4] | Effect at 2 h (% ± SD), percent inhibition of mechano-allodynia [1, 4] [%] | Effect at 3 h (% ± SD), percent inhibition of mechano-allodynia [1, 4] [%] | Effect at 5 h (% ± SD), percent inhibition of mechano-allodynia [1, 4] [%] | Reversal of CCI-induced mechano-allodynia [1, 4] | Ki (5HT1D) [nM] | IC50 (hP2Y14R) [nM] | IC50 (mP2Y14R) [nM] | also measured |
| --- | --- | --- | --- | --- | --- | --- | --- | --- | --- | --- |
| O=C(O)c1cc(-c2ccc(C3CCNCC3)cc2)c2ccc(-c3ccc(C(F)(F)F)cc3)cc2c1 [Compound 1, 4-[4-(piperidin-4-yl)phenyl]-7-[4-(rifluoromethyl)phenyl]-2-naphthoic acid] | 87.9 ± 12.9 | 100% and 100 ± 0.0% | 96.4 ± 6.2 | 78.6 ± 9.4 | 21.3 ± 14.1 | fully efficacious; also recorded: reversed the allodynia |  |  |  | IC50 (CB1 cannabinoid receptor): > 50000 nM; IC50 (CB2 cannabinoid receptor): > 50000 nM; Effect at 0.5 h (% ± SD), percent inhibition of mechano-allodynia [1, 2]: 10.0 ± 17.3%; Effect at 1 h (% + SD), percent inhibition of mechano-allodynia [1, 2]: 19.9 ± 17.3%; Effect at 2 h (% ± SD), percent inhibition of mechano-allodynia [1, 2]: 10.0 ± 17.3%; Effect at 3 h (% ± SD), percent inhibition of mechano-allodynia [1, 2]: 4.7 ± 8.2%; Effect at 5 h (% ± SD), percent inhibition of mechano-allodynia [1, 2]: 4.7 ± 8.2%; Effect at 0.5 h (% ± SD), percent inhibition of mechano-allodynia [1, 3]: 62.9 ± 18.7%; Effect at 1 h (% + SD), percent inhibition of mechano-allodynia [1, 3]: 79.3 ± 2.2%; Effect at 2 h (% ± SD), percent inhibition of mechano-allodynia [1, 3]: 76.9 ± 6.3%; Effect at 3 h (% ± SD), percent inhibition of mechano-allodynia [1, 3]: 64.7 ± 17.2%; Effect at 5 h (% ± SD), percent inhibition of mechano-allodynia [1, 3]: 8.7 ± 15.1%; ED50 ([1]; Mus musculus, ip, read-out: ED50 at 1 h (95% CI), reversal of mechano-allodynia, i.p., 1 h post drug, day 7 post-CCI): 1.6 µmol/kg |
| CC(=O)N1CCC(c2ccc(-c3cc(C(=O)O)cc4cc(-c5ccc(C(F)(F)F)cc5)ccc34)cc2)CC1 [Compound 4, 4-(4-(1-(Acetyl)piperidin-4-yl)phenyl)-7-(4-(trifluoromethyl)phenyl)-2-naphthoic acid] |  |  |  |  |  |  | 1750 |  |  | Ki (5HT1E): 3910 nM; Ki (β3): 860 nM; Ki (TSPO): 508 nM |
| NCCCNC(=O)c1ccc(-c2cc(C(=O)O)cc(-n3cc(-c4ccc(C(F)(F)F)cc4)nn3)c2)s1 [Compound 8] | 81.0 ± 6.9 | 91.5 ± 7.4% | 74.0 ± 28.5 | 30.9 ± 21.0 | 10.0 ± 17.3 |  | 6700 | 169 ± 42 | 384 | Emax, in vivo efficacy ([1]; 10 μmol/kg i.p.): 91.5% |
| O=C(O)c1cc(-c2ccc(C3CCNCC3)cc2)cc(-c2cn(-c3ccc(C(F)(F)F)cc3)nn2)c1 [Compound 7, 4′-(Piperidin-4-yl)-5-(1-(4-(trifluormethyl)phenyl)-1H-1,2,3-triazol-4-yl)-[1,1′-biphenyl]-3-carboxylic acid] | 70.7 ± 16.5 | 86.8 ± 2.4% | 71.4 ± 10.2 | 55.1 ± 18.6 | 6.7 ± 5.9 | reversed the allodynia |  | 664 ± 175 | 246 ± 63 | Ki (DOR): 3790 nM; Ki (α2C): 2710 nM; Ki (α2A): 959 nM; Ki (α2B): 5330 nM; In vivo efficacy compared with a comparator compound ([1]; 10 μmol/kg i.p., 6 vs 7, 4 vs 1): no statistical difference; also recorded: similar; mP2Y14R affinity compared to isomer 6 (mP2Y14R; 7 vs 6): nearly equipotent |
